{"source": "patent US8865237B2", "about": "“Method of preparing dialysed extract of fenugreek seeds which induces hypoglycemia, mediated, in part, via stimulation of insulin signaling pathway” (Department of Biotechnology, priority 2006, dated 2014)", "key": {"[1]": {"system": "CHO clones expressing insulin receptor and GLUT4eGFP", "assay": "Glucose transport (2-DG uptake) in GLUT4 overexpressing CHO cells", "format": "cell-based", "settings": "wortmannin 20 min or BIS-1 100 nmol/l 1 h, then extract 30 min", "protocol": "Cell Culture In Vitro Studies. […] For preadipocyte differentiation 80% confluent preadipocytes were cultured for 2 days in differentiation medium (DMEM supplemented with 1 μmol/l insulin, 0.5 mmol/l IBMX, 0.25 μmol/l DEX containing 10% FBS) and for 2 days in DMEM supplemented with 1 μmol/l insulin and 10% FBS. Thereafter the cells were grown for an additional 4-5 days in DMEM containing 10% FBS. Media was changed on every second day without any additional supplements. CHO clones expressing insulin receptor and GLUT4eGFP protein were grown in media supplemented with hygromycin additionally (100 μg/ml). Penicillin (100 units/ml) and streptomycin ([…]) were added routinely to cultures and all cell lines were cultivated at 37° C. in a 5% CO2 enriched humidified atmosphere.\nEffect of FSE on glucose transport. […] Protein was estimated and the radioactivity incorporated into cells was quantified by scintillation counting (Packard, Albertville, Minn.). Nonspecific uptake, measured in the presence of 10 μmol/l cytochalasin B, was subtracted from all values. […]\n(§1) Effect of FSE on glucose transport in GLUT4 overexpressing cells. […] CHO cells overexpressing insulin receptor as well as GLUT4 were incubated in the presence of various concentrations of FSE for 30 min and glucose transport was measured by determining the rates 2DG uptake. […]"}, "[2]": {"system": "GLUT4 in 3T3-L1 adipocytes", "assay": "GLUT4 translocation in 3T3-L1 cells (mycGLUT4 ELISA, membrane fractionation)", "format": "cell-based", "protocol": "GLUT4 Translocation Assay in GLUT4 Overexpressing Cell lines. CHO clones expressing insulin receptor and GLUT4eGFP protein were plated on a microscopic chamber slide (ICN, Costa Mesa, Calif.), serum starved in DMEM containing 1 mg/ml BSA for 3 h, followed by treatment with 100 nmol/l insulin or 25 mg/l FSE for 10 and 30 min respectively. Treatment was terminated by keeping the slide on ice and washing with cold PBS. Cells were fixed with 3% para-formaldehyde (PF) in PBS for 15 min at room temperature. GLUT4 translocation was investigated by using LSM confocal microscope (Zeiss LSM 510, Heidelberg, Germany). 3T3-L1 expressing mycGLUT4 were grown in 96 well plated then differentiated to adipocytes, serum starved for 3 h and incubated with insulin or FSE for 10 and 30 min respectively. To examine the specificity of the signaling pathway the cells were pretreated with wortmannin (100 nmol/l) or BIS-1 (100 nmol/l) for 20 min and 1 h respectively. […] The optical absorbance of the supernatant was measured at 414 nm. […]\nas §1"}, "[3]": {"system": "PKCλ in 3T3-L1 adipocytes", "assay": "PKCλ in plasma membrane fraction of 3T3-L1 adipocytes (immunoblotting)", "format": "cell-based", "settings": "wortmannin 100 nmol/l 20 min, BIS-1 100 nmol/l 1 h", "protocol": "Isolation of plasma membrane fraction and immunoblotting detection of PKCλ and GLUT4 in 3T3-L1 adipocytes. Differentiated 3T3-L1 cells in 100 mm petri dishes were serum starved for 3 h in DMEM supplemented with 0.1% BSA and then treated with 100 nmol/l insulin or […] for 10 min and 30 min respectively. In some cases cells were pre-treated with 100 nmol/l wortmannin, for 20 min or 100 nmol/l BIS-1 for 1 h followed by treatment with extract t for additional 30 min. Plasma membrane fractionation of 3 T3-L1 adipocytes was performed as previously described (28) with slight modifications that 1 mmol/l PMSF, 1 mmol/l Na3VO4 and a cocktail of protease inhibitors were added to the lysis buffers. Equal protein was diluted with 5× Laemmli buffer, electrophoresied by 10% SDS-PAGE and transferred on to a nitrocellulose membrane. The membrane was probed with anti-nPKCλ or anti-GLUT4 antibody.\nEffect of FSE on PKCλ translocation in 3T3-L1 and RepG2 cells. […] To investigate the link between FSE induced 1R phosphorylation and GLUT4 translocation, translocation of PKCλ was studied in both 3T3-L1 and HepG2. […] In unstimulated HepG2 cells the immunofluorescence was minimum as visualized by confocal microscopy. […] Wortmannin and bis-1 decreased the fluorescence associated with the membrane."}, "PKCλ in HepG2 cells": {"system": "PKCλ in HepG2 cells", "assay": "Confocal microscopy analysis of PKC translocation in HepG2 cells", "format": "cell-based, human", "settings": "HepG2, pretreatment before extract", "protocol": "Confocal microscopy analysis of PKC translocation in HepG2 cells. HepG2 cells were serum starved for 3 h and were treated with either 100 nmol/l insulin for 10 min or 25 mg/l FSE for 30 min. In some wells, cells were pretreated with pharmacological inhibitors before treating with extract. Cells were washed quickly with cold PBS and fixed by treating with 3% paraformaldehyde in PBS Ph 7.4, for 15 min at room temperature, rinsed with PBS three times and quenched with 1% glycine for 10 min. Cells were permeabilised with 0.025% saponin in PBS, for 5 min, blocked with PBS containing 5% FBS for 1 h at room temperature, incubated with anti-PKC antibody for overnight at 4° C. in PBS oontaining 2.5% FBS. Cells were washed four times for 5 min each with PBS. Cells were then incubated with a flourescein isothoicyanate conjugated anti-rabbit antibody for additional 1 h, washed again and mounted using vectashield (Vector Laboratories, Burlingame, Calif.) for visualization by confocal microscopy. Rabbit IgG was used as an isotype control.\nEffect of FSE on PKCλ translocation in 3T3-L1 and RepG2 cells. […] To investigate the link between FSE induced 1R phosphorylation and GLUT4 translocation, translocation of PKCλ was studied in both 3T3-L1 and HepG2. […] Wortmannin and bis-1 decreased the fluorescence associated with the membrane."}, "[4]": {"system": "insulin receptor, IRS-1 and p85 subunit of PI3-Kinase in HepG2 cells", "assay": "Phosphorylation of insulin signaling proteins in HepG2 cells (western blot)", "format": "cell-based, human", "settings": "HepG2, 25 mg/l FSE or 100 nmol/l insulin", "protocol": "(§2) Effect of FSE on insulin signaling proteins in 3T3-L1 Adipocytes and HepG2 cell lines. Differentiated 3T3-L1 adipocytes or HepG2 cell were serum starved in F-12K medium containing 7 mM glucose and 0.1% BSA for 16 h followed by changing medium to DMEM containing 25 mmol/l glucose and incubated for 1 h. Subsequently the cells were treated with 100 nmol/l insulin or 25 mg/l FSE for 10 min and 30 min respectively. Untreated cells were incubated with PBS. Cells were washed with cold PBS, removed from the plates using a rubber policeman, lysed in lysis buffer (50 mmol/l Tris-HCl pH7.5, 150 mmol/l NaCl, 1% NP-40, 2 mmol/l EGTA, 2 mmol/l Na3VO4, 100 mmol/l Na4P2O7, […], 1 mmol/l PMSF and protease inhibitor cocktail) on ice for 30 min, passed through 261/2G syringe 20 times and finally centrifuged at 15,000×g for 10 min at 4° C. Equal amounts of protein (100 μg) were diluted in 5× Laemmli reducing buffer (250 mmol/l Tris-HCl p 6.8, 10% SDS, 0.5% bromophenol blue, 50% glycerol, 12.5% β-mercaptoethanol) boiled for 5 min at 100° C. and resolved by 8% SDS-PAGE by running proteins below 43 kDa out of the gel. The proteins form the gel were transferred to nitrocellulose membrane using transfer buffer (CAPS buffer pH 10.7 containing 10% methanol) by applying 150 mA current for 2 h. […]"}, "liver glucokinase (GK)": {"system": "liver glucokinase (GK)", "assay": "Liver glucokinase assay in STZ-BALB/cJ mice", "format": "in vivo", "protocol": "BALB/cJ or Swiss albino mice (male, 8-10 week old) were housed under environmentally controlled conditions (22+/−2° C.) with a 12 h light/dark cycle and had free access to standard rodent pellet food and water. Animals were given 5 daily intraperitoneal (IP) injection of freshly prepared STZ (40 mg/kg in 0.5 mol/l sodium citrate pH 4.5) or AXN (50 mg/kg in 0.9% sodium chloride). Ten hours before the experiments, animals were moved to new cages in which no food was available. AXN injected mice that achieved a glucose level of 200-300 mg/dl and STZ injected mice that achieved a glucose level of 275-400 mg/dl were used as hyperglycemic models in this study. Mice were divided into, diabetic control group, insulin group and FSE group (n=5 in each group). Mice were injected (IP) with vehicle (PBS), insulin (1.5 U/kg) or extract (1, 5 or 15 mg/kg). Blood was collected before injection (0 min), 90 and 240 min after the treatments and serum blood glucose levels were estimated. In some experiments STZ-BALB/cJ mice were sacrificed 90 min after the treatments, and the livers were harvested for analysis. In another set of experiments, AXN-induced Swiss albino diabetic mice were injected with PBS or extract for 5 days (n=5). Blood was collected on day 0, 5, 10 and 15 and body weight was monitored on same day. Acidified insulin from bovine pancreas diluted in PBS was used as a positive test compound in all the experiments. All animal experiments have been performed following the requirement of the committee for the Purpose of Control and Supervision of Experiments on Animals (CPCSEA), Government of India, and after permission of the Institute's Animal Care and Use Committee (IACUC).\nGlucokinase assay. Liver samples were homogenized in three volumes of ice cold buffer containing 50 mmol/l Tris-HCl, pH 7.4, 300 mmol/l sucrose, 100 mmol/l KCl, 1 mmol/l EDTA 2.5 mmol/1 mercaptoethanol and centrifuged at 12,000×g for 15 min (12). […] GK activity was calculated as the difference between the glucose phosphorylation capacity at 100 and 0.5 mmol/l glucose. […]"}, "[5]": {"system": "insulin receptor, IRS-1 and p85 subunit of PI3-Kinase in 3T3-L1 adipocytes", "assay": "Phosphorylation of insulin signaling proteins in 3T3-L1 adipocytes (western blot)", "format": "cell-based", "settings": "3T3-L1, 25 mg/l FSE or 100 nmol/l insulin", "protocol": "as §2"}}}
{"compound": "CN(C)CCCn1cc(C2=C(c3c[nH]c4ccccc34)C(=O)NC2=O)c2ccccc21", "note": "[BIS-1]", "values": [{"measurement": "effect of inhibitor pretreatment on FSE stimulated glucose uptake", "setting": "[1]", "result": "abrogated"}, {"measurement": "effect of inhibitor pretreatment on FSE induced GLUT4 translocation", "setting": "[2]; wortmannin 100 nmol/l 20 min, BIS-1 100 nmol/l 1 h", "result": "masked"}, {"measurement": "effect of inhibitor pretreatment on translocation of PKCλ induced by FSE", "setting": "[3]", "result": "inhibited"}, {"measurement": "effect of inhibitors on fluorescence associated with the membrane", "setting": "PKCλ in HepG2 cells", "result": "decreased"}]}
{"compound": "insulin", "values": [{"measurement": "IR-α phosphorylation", "setting": "[4]", "result": "did not exhibit"}, {"measurement": "enhancement of glucose uptake", "setting": "[2]; 100 nmol/l insulin, under similar experimental conditions", "result": 2.5, "unit": "fold"}, {"measurement": "enhancement of GK activity compared to diabetic control", "setting": "liver glucokinase (GK); STZ-diabetic BALB/cJ mice, 90 min, FSE 15 mg/kg", "result": 460, "unit": "%"}, {"measurement": "activation of GK compared to control treated animals", "setting": "liver glucokinase (GK); diabetic animals, 90 min treatment", "result": 4.5, "unit": "fold"}, {"measurement": "GK activity", "setting": "liver glucokinase (GK); liver removed 90 min after treatment, insulin 1.5 U/kg or FSE 15 mg/kg", "result": 690.0, "unit": "nmol/min/mg"}, {"measurement": "IR-α phosphorylation", "setting": "[5]", "result": "did not exhibit"}]}
